# In ChEMBL document CHEMBL1201862, “PubChem BioAssay data set” (2004):
# Calls of active or inactive are those of the source.
# What was measured:
# [1] = NIH-3T3 fibroblast cytotoxicity, dose response, cytotoxicity control, cell-based, fluorescence, Alamar Blue, secondary assay (AID 2327); assay type: functional;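 further: NIH-3T3 mouse fibroblasts cultured with fluconazole at 8 µg/mL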
# [2] = target: T1, Replicative DNA helicase DnaB (Mycobacterium tuberculosis, UniProt P9WMR3); test: DnaB intein splicing inhibitors, dose response, biochemical, cell-free fluorescence (AID 449749); assay type: functional
# T1 sequence (P9WMR3 whole entry): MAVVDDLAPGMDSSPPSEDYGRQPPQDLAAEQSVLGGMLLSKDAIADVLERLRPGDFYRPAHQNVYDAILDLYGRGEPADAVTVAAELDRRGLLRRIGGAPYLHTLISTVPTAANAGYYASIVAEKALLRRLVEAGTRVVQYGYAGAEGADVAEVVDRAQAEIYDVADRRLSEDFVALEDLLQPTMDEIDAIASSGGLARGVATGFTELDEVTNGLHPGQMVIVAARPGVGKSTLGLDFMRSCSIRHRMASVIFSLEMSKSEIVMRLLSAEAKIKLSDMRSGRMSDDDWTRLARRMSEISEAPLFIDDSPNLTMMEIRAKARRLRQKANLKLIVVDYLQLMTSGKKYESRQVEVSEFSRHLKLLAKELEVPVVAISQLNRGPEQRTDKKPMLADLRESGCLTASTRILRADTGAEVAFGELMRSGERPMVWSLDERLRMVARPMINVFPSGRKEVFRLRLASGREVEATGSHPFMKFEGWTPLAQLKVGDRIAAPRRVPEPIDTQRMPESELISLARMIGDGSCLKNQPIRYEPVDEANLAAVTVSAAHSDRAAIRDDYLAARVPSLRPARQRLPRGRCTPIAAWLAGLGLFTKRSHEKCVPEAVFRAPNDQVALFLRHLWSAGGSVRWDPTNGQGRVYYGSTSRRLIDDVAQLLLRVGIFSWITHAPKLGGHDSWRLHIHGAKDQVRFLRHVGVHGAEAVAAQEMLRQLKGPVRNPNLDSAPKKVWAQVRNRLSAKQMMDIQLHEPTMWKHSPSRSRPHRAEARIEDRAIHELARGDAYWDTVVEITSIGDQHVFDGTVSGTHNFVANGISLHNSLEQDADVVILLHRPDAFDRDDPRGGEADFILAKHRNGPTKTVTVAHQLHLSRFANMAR
# [3] = target: SUMO-activating enzyme (Homo sapiens, UniProt Q9UBT2); test: SUMOylation inhibitor hit validation, confirmation, SUMOylation inhibitor project, biochemical, AlphaScreen (AID 2018); assay type: functional
# SUMO-activating enzyme, sequence (Q9UBE0 whole entry): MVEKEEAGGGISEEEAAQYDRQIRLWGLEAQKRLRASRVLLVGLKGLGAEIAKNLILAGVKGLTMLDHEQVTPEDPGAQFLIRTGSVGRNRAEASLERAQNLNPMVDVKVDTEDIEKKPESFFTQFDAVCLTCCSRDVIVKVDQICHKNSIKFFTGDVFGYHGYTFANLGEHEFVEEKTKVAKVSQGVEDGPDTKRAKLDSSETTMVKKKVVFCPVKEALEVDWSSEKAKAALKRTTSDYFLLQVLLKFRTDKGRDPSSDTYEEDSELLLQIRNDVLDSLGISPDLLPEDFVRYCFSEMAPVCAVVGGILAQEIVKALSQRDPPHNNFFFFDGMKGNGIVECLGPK
# SUMO-activating enzyme, sequence (Q9UBT2 whole entry): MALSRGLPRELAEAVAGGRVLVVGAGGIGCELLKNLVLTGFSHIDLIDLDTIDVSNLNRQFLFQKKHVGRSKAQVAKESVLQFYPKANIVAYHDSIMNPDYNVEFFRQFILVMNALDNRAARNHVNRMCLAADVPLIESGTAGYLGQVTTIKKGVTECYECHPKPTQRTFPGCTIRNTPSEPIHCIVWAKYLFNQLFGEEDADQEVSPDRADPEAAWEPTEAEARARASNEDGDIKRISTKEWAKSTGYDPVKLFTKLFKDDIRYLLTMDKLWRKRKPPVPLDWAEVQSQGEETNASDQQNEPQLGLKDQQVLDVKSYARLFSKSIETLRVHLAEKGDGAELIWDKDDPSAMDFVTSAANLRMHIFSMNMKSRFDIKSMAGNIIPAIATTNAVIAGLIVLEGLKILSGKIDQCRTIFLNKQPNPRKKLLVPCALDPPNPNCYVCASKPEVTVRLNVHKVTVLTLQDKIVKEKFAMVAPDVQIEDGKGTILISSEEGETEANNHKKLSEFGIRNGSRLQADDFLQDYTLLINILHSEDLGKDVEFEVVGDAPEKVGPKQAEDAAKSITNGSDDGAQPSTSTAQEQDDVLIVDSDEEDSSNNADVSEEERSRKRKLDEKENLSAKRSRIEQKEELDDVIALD
# [4] = C. albicans growth with fluconazole, confirmation, fluorescence, retest (AID 2467); assay type: functional, cell-based
# [5] = target: T2, Protein RecA (Mycobacterium tuberculosis, UniProt P9WHJ3); test: Fluorescence Cell-Free Homogeneous Dose Retest to Identify Inhibitors of RecA-Intein Splicing Activity. [Related pubchem assays (depositor defined):AID2097, AID2223, AID489010, AID492950]; assay type: functional
# T2 sequence (P9WHJ3 whole entry): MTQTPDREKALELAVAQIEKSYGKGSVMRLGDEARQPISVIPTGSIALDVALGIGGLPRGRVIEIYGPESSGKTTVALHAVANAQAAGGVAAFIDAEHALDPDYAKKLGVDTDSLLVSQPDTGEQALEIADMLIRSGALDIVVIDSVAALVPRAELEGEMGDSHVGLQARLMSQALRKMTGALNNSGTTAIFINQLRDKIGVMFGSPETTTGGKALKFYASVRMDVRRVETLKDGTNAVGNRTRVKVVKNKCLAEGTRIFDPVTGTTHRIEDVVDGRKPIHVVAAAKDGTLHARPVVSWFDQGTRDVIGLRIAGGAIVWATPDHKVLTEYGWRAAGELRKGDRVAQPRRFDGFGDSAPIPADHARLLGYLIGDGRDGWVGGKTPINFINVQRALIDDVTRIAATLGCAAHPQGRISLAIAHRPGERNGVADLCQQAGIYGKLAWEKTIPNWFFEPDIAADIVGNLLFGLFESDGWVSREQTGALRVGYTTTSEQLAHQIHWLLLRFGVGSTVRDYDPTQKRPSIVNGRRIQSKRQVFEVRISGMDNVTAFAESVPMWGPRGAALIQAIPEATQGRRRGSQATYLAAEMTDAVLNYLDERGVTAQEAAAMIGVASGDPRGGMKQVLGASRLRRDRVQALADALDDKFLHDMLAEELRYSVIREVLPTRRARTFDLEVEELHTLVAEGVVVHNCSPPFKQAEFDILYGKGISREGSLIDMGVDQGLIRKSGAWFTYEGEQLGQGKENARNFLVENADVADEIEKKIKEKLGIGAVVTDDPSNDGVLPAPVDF
# [6] = target: T3, Apoptotic protease-activating factor 1 (Homo sapiens, UniProt O14727); assay type: functional
# T3 sequence (O14727 whole entry): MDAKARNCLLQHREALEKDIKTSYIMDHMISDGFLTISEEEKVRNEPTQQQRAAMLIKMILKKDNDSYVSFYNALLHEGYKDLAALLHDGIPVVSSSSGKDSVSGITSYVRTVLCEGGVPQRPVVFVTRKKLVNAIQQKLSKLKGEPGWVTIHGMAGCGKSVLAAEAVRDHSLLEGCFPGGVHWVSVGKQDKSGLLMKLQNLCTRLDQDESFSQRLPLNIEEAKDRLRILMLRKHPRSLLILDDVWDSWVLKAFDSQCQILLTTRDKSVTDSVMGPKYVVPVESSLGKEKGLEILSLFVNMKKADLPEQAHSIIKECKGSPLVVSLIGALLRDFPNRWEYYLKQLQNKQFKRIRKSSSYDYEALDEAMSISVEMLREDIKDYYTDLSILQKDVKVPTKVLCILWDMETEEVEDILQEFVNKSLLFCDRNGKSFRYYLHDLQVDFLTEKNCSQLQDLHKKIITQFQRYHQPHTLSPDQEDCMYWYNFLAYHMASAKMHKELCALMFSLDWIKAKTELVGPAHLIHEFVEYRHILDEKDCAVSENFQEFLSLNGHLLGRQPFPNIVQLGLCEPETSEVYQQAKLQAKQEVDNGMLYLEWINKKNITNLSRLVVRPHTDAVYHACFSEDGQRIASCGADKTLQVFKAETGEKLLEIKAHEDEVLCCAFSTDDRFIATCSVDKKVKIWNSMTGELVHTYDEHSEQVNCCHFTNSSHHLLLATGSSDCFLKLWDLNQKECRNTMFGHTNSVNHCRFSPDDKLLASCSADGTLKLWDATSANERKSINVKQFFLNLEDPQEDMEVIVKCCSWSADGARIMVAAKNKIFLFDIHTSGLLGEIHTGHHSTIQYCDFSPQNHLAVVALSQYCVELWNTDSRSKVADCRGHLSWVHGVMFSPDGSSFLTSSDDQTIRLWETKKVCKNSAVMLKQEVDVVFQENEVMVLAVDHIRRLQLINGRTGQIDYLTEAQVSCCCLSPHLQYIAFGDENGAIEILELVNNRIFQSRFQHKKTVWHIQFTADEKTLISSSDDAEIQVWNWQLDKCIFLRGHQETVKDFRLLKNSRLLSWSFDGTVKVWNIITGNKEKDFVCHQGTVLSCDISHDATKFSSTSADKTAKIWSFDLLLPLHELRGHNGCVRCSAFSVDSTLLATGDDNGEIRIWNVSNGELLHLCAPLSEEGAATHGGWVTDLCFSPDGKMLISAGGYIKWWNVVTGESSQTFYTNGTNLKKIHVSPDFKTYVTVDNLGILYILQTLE
# [7] = target: Cytochrome P450 2D6 (Homo sapiens, UniProt P10635);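 further: CYP2D6 member of a cytochrome P450 panel assay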
# Cytochrome P450 2D6, sequence (P10635 whole entry): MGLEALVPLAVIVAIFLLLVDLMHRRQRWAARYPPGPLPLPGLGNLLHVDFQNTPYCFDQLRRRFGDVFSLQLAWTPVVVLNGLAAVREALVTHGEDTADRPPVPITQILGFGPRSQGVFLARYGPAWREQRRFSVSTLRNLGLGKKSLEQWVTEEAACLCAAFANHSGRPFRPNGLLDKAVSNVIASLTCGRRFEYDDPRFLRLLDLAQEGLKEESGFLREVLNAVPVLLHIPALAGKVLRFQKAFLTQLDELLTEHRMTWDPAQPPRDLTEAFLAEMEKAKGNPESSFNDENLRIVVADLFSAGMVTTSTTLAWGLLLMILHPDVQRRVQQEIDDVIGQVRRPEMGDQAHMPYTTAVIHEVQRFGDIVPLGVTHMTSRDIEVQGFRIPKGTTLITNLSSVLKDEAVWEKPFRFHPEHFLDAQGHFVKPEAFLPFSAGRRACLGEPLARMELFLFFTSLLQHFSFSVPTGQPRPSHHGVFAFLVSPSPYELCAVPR
# [8] = tested on: HEK293; test: cells; conditions: Homo sapiens
# [9] = tested on: HEK293; test: cells; conditions: Homo sapiens; remark: listed apart in the source
# [10] = target: G-protein coupled receptor 55 (Homo sapiens, UniProt Q9Y2T6); test: GPR55 antagonists, SAR follow-up, counter-screen for GPR35 antagonist project, imaging, image-based (AID 2397); assay type: functional
# G-protein coupled receptor 55, sequence (Q9Y2T6 whole entry): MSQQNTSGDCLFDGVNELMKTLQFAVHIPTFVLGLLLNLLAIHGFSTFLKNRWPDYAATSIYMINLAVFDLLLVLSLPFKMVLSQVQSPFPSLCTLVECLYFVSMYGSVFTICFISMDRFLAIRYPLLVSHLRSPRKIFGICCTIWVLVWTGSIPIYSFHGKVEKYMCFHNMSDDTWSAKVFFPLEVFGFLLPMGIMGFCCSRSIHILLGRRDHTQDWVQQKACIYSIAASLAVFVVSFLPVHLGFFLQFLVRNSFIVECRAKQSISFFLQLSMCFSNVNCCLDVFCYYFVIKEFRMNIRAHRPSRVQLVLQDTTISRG
# [11] = target: Nonstructural protein 1 (Influenza A virus, UniProt Q194T2); assay type: functional, Influenza A virus (A/California/07/2009(H1N1))
# Nonstructural protein 1, sequence (Q194T2 whole entry): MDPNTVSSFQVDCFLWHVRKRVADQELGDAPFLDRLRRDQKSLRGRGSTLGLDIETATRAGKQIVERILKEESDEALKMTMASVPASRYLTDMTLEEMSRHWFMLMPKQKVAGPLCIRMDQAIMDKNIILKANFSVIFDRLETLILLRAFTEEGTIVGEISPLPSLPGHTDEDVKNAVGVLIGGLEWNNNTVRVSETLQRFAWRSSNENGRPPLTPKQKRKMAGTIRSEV
# [12] = tested on: HEK293; test: cells; assay type: functional, cell-based; conditions: Homo sapiens
# [13] = tested on: HEK293; test: cells; assay type: functional, cell-based; conditions: Homo sapiens; remark: listed apart in the source
# [14] = tested on: HEK293; test: NOD1 signaling inhibitors, primary screen, cell-based, luminescence, uHTS (AID 1578); assay type: functional; conditions: Homo sapiens
# [15] = tested on: HEK293; test: cells; assay type: functional, cell-based; conditions: Homo sapiens; remark: listed apart in the source
# [16] = tested on: HEK293; test: NOD2 signaling inhibitors in MDP-stimulated cells, cell-based, uHTS, luminescence (AID 2001); assay type: functional; conditions: Homo sapiens
# [17] = target: Nucleotide-binding oligomerization domain-containing protein 2 (Homo sapiens, UniProt Q9HC29); test: NOD2 signaling inhibitors, cell-based, luminescence, uHTS, HEK293 (AID 1566); assay type: functional
# Nucleotide-binding oligomerization domain-containing protein 2, sequence (Q9HC29 whole entry, the tested form may be a part): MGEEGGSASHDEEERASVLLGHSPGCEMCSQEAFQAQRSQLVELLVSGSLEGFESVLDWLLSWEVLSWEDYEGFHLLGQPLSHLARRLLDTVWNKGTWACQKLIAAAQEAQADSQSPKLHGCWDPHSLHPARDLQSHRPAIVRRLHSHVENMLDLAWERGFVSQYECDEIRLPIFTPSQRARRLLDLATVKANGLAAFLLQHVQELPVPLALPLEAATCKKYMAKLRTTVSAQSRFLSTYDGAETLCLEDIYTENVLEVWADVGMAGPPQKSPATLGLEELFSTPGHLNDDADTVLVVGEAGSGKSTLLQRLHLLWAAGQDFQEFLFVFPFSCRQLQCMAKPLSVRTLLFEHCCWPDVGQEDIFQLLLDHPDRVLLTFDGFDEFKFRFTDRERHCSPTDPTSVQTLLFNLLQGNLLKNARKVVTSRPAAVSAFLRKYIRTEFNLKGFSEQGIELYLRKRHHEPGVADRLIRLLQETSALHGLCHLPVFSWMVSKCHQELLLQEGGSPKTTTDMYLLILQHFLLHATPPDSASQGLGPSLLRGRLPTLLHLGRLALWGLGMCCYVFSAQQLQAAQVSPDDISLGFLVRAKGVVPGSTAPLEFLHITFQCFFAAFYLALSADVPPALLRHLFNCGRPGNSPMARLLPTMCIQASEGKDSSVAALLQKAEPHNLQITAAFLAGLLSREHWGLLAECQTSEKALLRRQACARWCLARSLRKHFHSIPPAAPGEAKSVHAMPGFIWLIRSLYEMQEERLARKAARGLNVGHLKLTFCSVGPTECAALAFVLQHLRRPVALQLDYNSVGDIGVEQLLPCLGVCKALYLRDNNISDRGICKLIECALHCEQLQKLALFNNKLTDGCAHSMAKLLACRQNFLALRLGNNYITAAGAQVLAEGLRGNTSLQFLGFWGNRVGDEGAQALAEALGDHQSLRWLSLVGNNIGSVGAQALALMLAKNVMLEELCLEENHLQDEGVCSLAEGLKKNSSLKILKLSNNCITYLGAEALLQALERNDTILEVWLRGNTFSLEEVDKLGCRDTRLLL
# [18] = target: T4, Streptokinase A (Streptococcus pyogenes serotype M1, UniProt P10520); test: S. pyogenes streptokinase expression inhibitors, potency, dose response, plasminogen activation absorbance, OD405 (AID 1914); assay type: functional, Streptococcus pyogenes M1 GAS;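 further: secreted streptokinase activity via plasminogen activation per viability signal from cell pellet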
# T4 sequence (P10520 whole entry): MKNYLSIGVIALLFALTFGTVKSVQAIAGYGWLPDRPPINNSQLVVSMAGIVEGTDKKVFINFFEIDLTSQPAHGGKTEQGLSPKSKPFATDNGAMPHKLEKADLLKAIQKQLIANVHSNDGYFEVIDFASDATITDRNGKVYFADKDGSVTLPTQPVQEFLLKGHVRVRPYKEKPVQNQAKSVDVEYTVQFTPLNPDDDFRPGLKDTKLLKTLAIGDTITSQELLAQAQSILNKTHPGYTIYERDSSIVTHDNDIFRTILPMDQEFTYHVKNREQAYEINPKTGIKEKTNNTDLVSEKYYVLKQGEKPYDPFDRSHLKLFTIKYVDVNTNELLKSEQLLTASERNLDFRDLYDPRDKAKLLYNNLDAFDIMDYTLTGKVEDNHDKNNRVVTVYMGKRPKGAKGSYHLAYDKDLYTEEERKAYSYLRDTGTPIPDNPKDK
# [19] = tested on: INS1; test: beta cell apoptosis inhibitors, cytokine rescue, dose response, luminescence, retest (AID 449756); assay type: functional, cell-based; conditions: Rattus norvegicus;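 further: cell death triggered by IL-1 beta plus TNF-alpha plus IFN-gamma mixture; protective hits raise ATP signal compared with cytokine alone wells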
# [20] = target: T5, Ubiquitin-conjugating enzyme E2 N (Homo sapiens, UniProt P61088); assay type: functional;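 further: Dose-response confirmation in a TR-FRET assay detecting UBC13-driven polyubiquitin chain formation, inhibition measured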
# T5 sequence (P61088 whole entry): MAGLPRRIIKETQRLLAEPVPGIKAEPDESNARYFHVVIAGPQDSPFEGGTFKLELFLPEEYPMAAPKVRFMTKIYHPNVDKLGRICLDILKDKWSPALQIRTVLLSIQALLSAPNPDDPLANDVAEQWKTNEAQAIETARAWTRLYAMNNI
# [21] = tested on: Streptococcus sp. 'group A'; test: growth inhibition of control SK(-) GAS strain, dose response, counter-screen for streptokinase expression inhibitor project, luminescence, kanamycin, BacTiterGlo, confirmation (AID 1900); assay type: functional, organism-based
# [22] = tested on: Streptococcus; test: Group A Streptococcus viability loss, dose response, counter-screen for streptokinase expression inhibitor project, luminescence, BacTiterGlo (AID 1915); assay type: functional, organism-based;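 further: potency for reduction of bacterial viability or growth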
# [23] = target: T6, Mannose-6-phosphate isomerase (Homo sapiens, UniProt P34949); test: PMI enzyme inhibitors, confirmation, biochemical, fluorescence intensity (AID 1535)
# T6 sequence (P34949 whole entry): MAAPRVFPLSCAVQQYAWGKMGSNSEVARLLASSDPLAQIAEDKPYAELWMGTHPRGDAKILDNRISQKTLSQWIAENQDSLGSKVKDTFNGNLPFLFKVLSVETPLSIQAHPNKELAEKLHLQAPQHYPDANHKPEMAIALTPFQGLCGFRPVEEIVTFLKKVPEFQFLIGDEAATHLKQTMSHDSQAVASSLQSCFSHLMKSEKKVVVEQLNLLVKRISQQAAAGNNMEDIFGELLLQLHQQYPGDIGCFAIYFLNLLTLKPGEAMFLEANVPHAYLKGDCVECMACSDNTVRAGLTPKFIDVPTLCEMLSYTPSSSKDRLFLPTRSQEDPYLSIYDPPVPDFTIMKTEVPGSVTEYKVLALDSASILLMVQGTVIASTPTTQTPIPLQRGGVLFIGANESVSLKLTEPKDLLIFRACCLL
# [24] = target: Phosphomannomutase 2 (Homo sapiens, UniProt O15305); test: Counter screen SAR assay for PMM2 inhibitors via a fluorescence intensity assay. [Related pubchem assays (depositor defined):AID1545, AID1574]
# Phosphomannomutase 2, sequence (O15305 whole entry): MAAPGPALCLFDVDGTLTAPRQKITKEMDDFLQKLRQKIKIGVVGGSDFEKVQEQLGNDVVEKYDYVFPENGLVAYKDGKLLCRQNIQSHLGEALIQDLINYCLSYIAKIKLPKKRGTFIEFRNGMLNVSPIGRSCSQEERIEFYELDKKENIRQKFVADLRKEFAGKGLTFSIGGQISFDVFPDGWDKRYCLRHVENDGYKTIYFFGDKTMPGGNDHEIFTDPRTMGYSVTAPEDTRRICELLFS
# [25] = target: T6, Mannose-6-phosphate isomerase; test: inhibitors of human PMI, primary screen, biochemical, fluorescence intensity, coupled assay (AID 1209)
structure (smiles),measurement,setting,value
O=[N+]([O-])c1cccc(/C=N/c2cccc3ccccc23)c1O,EC50,[1],107 µM (active)
same,AC50,[2],54.6 µM (active)
same,IC50,[3],20.4 µM (active)
same,EC50,[4],3.78 µM (active)
same,EC50,[5],41.9 µM (active)
same,IC50,[6],56.6 µM (active)
C#CCCCO/N=C1/[C@H]2O[C@@H]2[C@@H](O)[C@H]2[C@H]1CCn1c(=O)n(C)c(=O)n12,AC50,[7],inconclusive
N#Cc1c(-c2ccccc2)cc(C2CC2)nc1N,EC50,[8],> 59.7 µM (inactive)
same,EC50,[9],> 59.7 µM (inactive)
CCc1ccc(NC(=O)CSc2nc3ccsc3c(=O)n2Cc2ccc(OC)cc2)cc1,IC50,[10],> 32 µM (inactive)
CCCn1c(C)cc(C(=O)COc2ccc(C)nc2[N+](=O)[O-])c1C,IC50,[11],> 100 µM (active)
same,IC50,[12],> 20 µM (inactive)
same,IC50,[13],3.81 µM (active)
same,EC50,[14],> 20 µM (inactive)
same,IC50,[15],> 20 µM (inactive)
same,IC50,[16],> 20 µM (inactive)
same,EC50,[17],7.64 µM (active)
CCOC(=O)c1c(NC(=O)/C=C/c2ccc3c(c2)OCO3)sc(C)c1C,AC50,[7],inconclusive
Cc1nc(Nc2cnc(/C=C/c3cc(C(=O)Nc4cccc(C(F)(F)F)c4)ccc3C)cn2)cc(N2CCNCC2)n1,EC50,[18],11.4 µM (active)
same,AC50,[19],8.7 µM (active)
same,IC50,[20],> 20 µM (inactive)
same,IC50,[12],> 20 µM (inactive)
same,IC50,[13],> 20 µM (inactive)
same,EC50,[21],6.39 µM (active)
same,EC50,[14],7.82 µM (active)
same,EC50,[22],> 150 µM (not active)
same,IC50,[15],> 20 µM (inactive)
same,IC50,[16],> 20 µM (inactive)
same,EC50,[17],8.28 µM (active)
Cc1ccc(NC2Nc3cc(C)nn3S2)c(C)c1 (configuration not stated),IC50,[23],> 50 µM (inactive)
same,IC50,[24],> 100 µM (inactive)
same,IC50,[25],11.2 µM (active)
